Entries after “also recorded” stand apart in the source; their conditions may differ.

The target in data set [1] is T1, calf intestinal alkaline phosphatase (CIAP) (Bos taurus, UniProt P19111). In words: Alkaline phosphatase inhibition assay (spectrophotometric, p-NPP substrate). It counts as biochemical. The conditions noted are these: for IC50: CIAP, p-NPP substrate, pH 9.5, 37 °C, mean ± SEM. Here is the method: As previously mentioned, spectrophotometric analysis was used to evaluate the activity of calf intestinal alkaline phosphatase (CIAP). The reaction mixture contained 50 mM Tris-HCl buffer (5 mM MgCl2, 0.1 mM ZnCl2 pH 9.5), the 10 µL compound, and it was preincubated for 10 min by adding 5 µL of CIAP (0.025 U/mL). Then, 10 µL of a substrate (0.5 mM p-NPP (para nitrophenyl phosphate disodium salt)) was delivered to initiate the response, and therefore the assay mixture became incubated once more for 30 min at 37 °C. The change in absorbance of released p-nitrophenolate was monitored at 405 nm, using a 96-well microplate reader (Thermo Scientific Multiskan GO, USA). All the experiments were repeated three times in a triplicate manner. […] The inhibition activity was calculated according to the following equation: Inhibition (%)=[(Blank−Sample)/Blank]×100
T1 sequence (P19111 20-533): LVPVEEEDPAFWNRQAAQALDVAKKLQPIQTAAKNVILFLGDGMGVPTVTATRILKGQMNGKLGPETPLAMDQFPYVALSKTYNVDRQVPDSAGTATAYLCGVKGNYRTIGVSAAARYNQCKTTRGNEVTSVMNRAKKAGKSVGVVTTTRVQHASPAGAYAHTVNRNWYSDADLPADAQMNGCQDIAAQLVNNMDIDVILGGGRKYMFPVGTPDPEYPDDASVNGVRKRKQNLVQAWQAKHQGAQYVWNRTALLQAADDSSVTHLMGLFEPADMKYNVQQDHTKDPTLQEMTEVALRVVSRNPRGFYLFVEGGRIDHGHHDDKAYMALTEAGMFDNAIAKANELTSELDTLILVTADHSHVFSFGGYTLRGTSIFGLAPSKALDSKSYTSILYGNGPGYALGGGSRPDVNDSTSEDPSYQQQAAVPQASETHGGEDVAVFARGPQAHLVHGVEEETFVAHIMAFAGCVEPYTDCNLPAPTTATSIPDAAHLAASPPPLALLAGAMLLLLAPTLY
For calculation of the IC50 values, 6–8 serial dilutions were used and the results examined using the non-linear regression analysis of GraphPad Prism 5 [69].

The nature of the next data set: MTT cell viability assay. It counts as cell-based. To be noted: human, MG-63 osteosarcoma cells, MG-63 cells. Here is the method:
The human osteosarcoma MG-63 cells were acquired from the Korean Cell Line Bank (Seoul, Korea). The MG-63 cell lines were incubated in the humidified atmosphere at 37 °C containing 5% CO2 and maintained in the DMEM (Sigma, St. Louis, MO, USA), supplemented with 10% fetal bovine serum (FBS, WELGENE, Korea) and 50 unit/mL penicillin (Sigma) and 50 μg/mL streptomycin (Sigma). The medium was completely renewed every two days. The synthesized compounds were completely dissolved in dimethyl sulfoxide (DMSO) and further diluted to various concentrations (0, 0.5, 1, 2, and 4 µM). The control groups were treated with the same amount of DMSO. MTT assay technique was applied to check the toxic effect of our compounds. The MG-63 cell lines were seeded onto 96-well plates at a density of 0.4 × 10^5 cells/well with the medium for 24 h. After reaching 50% density, the cells were exposed to synthesized target compounds at the dose of 0, 0.5, 1, 2, and 4 µM for 24 h in media. […] After 24 h, the cell sustained 100 μL DMEM containing of 0.5 mg/mL 3-(4,5-dimethylthiazol-2-yl)-2,5-diphenyltetrazolium bromide (MTT) at 37 °C for 4 h. Then, the purple formazan crystals were dissolved with 100 μL of buffer (10% SDS, 0.01 N HCl). Finally, the absorbance was measured at 570 nm using a microplate reader (Thermo Fisher, Waltham, MA, USA).
For orientation: Formazan colour is commonly taken as a measure of viable cells.

For data set [2], the target named is T1, calf intestinal alkaline phosphatase (CIAP). Description: Kinetic mechanism analysis (Lineweaver-Burk plot). It counts as biochemical. Here is the method:
The inhibitor (7g), and substrate p-NPP concentrations were used at 0.00, 0.023, 0.045 and 0.091 µM, 10, 5, 2.5, 1.25, 0.625 and 0.3125 mM, respectively. The pre-incubation time and other conditions were the same as those mentioned in the section on the CIAP assay. Maximal initial velocities were determined from the initial linear portion of absorbances up to 10 min after the addition of enzyme per minute interval. The inhibition type of the enzyme was assayed by the Lineweaver–Burk plot of inverse velocities (1/V) versus the inverse of substrate concentration 1/[S] mM^−1. The EI dissociation constant Ki was determined by a secondary plot of 1/V versus inhibitor concentration.

Data set [3] can be described thus: DPPH free radical scavenging assay. The conditions noted are these: 100 µg/mL. Here is the method:
Free radical scavenging activity was determined by modifying the method by DPPH assay. The assay solution composed of the 100 μL of DPPH (150 μM) and 20 μL of the sample (100 μg/mL) was introduced to gain the final volume of each well up to 200 μL with methyl alcohol. Then, it was incubated in the dark at room temperature for the following half-hour. Ascorbic acid (Vitamin C) was used as a reference inhibitor. The measurements were performed by using a microplate reader (Thermo Scientific Multiskan GO, USA) at 517 nm. Each experiment was carried out in triplicate.
On the technique in general: The DPPH test is a chemical assay of radical scavenging.

The subject of data set [4] is tissue-specific isozymes (PLALP, GCALP, and IALP) versus L/B/K ALPs. The arrangement: method as in PMID 2178806. To be noted: cited from earlier work.
The target in another data set is ALP. The conditions noted are these: ALP inhibitors; cited from earlier work.

A word on the IC50: it is the midpoint of a concentration-inhibition curve. Low values mean greater potency in that assay, high ones weaker potency in that assay. In general, melting point refers to the temperature of the solid-liquid transition. `CCOC(=O)C=C1SC(N2N=C(c3ccccc3)CC2c2ccc(Br)cc2)=NC1=O` (stereo not drawn) [Compound 7a, Ethyl-2-(2-(5-(4-bromophenyl)-3-phenyl-4,5-dihydro-1H-pyrazol-1-yl)-4-oxothiazol-5(4H)-ylidene)acetate] came in with a melting point of 242 to 244 °C. For the same compound, in data set [1], the IC50 turned out to be 53 ± 1 nM.
With `CCOC(=O)C=C1SC(N2N=C(c3ccccc3)CC2c2ccc(C)cc2)=NC1=O` (stereo not drawn) [Compound 7b, Ethyl-2-(4-oxo-2-(3-phenyl-5-(p-tolyl)-4,5-dihydro-1H-pyrazol-1-yl)thiazol-5(4H)-ylidene)acetate], the melting point was in the range of 226 to 228 °C. This compound showed an IC50 in data set [1] of 2300 ± 151 nM.
As to `CCOC(=O)C=C1SC(N2N=C(c3ccccc3)CC2c2ccc(OC)cc2)=NC1=O` (stereo not drawn) [Compound 7c, Ethyl-2-(2-(5-(4-methoxyphenyl)-3-phenyl-4,5-dihydro-1H-pyrazol-1-yl)-4-oxothiazol-5(4H)-ylidene)acetate], the melting point was in the range of 236 to 238 °C. Also, half-maximal inhibition in data set [1] (IC50) required 198 ± 18 nM.
In the case of `CCOC(=O)C=C1SC(N2N=C(c3ccccc3)CC2c2ccc(OCc3ccccc3)c(OC)c2)=NC1=O` (stereo not drawn) [Compound 7d, Ethyl-2-(2-(5-(4-(benzyloxy)-3-methoxyphenyl)-3-phenyl-4,5-dihydro-1H-pyrazol-1-yl)-4-oxothiazol-5(4H)-ylidene)acetate], the melting point fell in the range of 202 to 204 °C. This compound also displayed an IC50 in data set [1] of 293 ± 39 nM.
A word on the viability: it is a read-out of living cells in per cent, often relative to untreated cells. The compound `CCOC(=O)C=C1SC(N2N=C(c3ccc(OC)cc3)CC2c2ccc(C)cc2)=NC1=O` (stereo not drawn) [Compound 7e, Ethyl-2-(2-(3-(4-methoxyphenyl)-5-(p-tolyl)-4,5-dihydro-1H-pyrazol-1-yl)-4-oxothiazol-5(4H)-ylidene)acetate] returned a melting point of 208 to 210 °C. The compound further had an IC50 in data set [1] of 228 ± 12 nM. Moreover, the viability at 24 h, 4 µM in “MTT cell viability assay” was at most 70%.
`CCOC(=O)C=C1SC(N2N=C(c3ccc(OC)cc3)CC2c2ccc(Cl)cc2Cl)=NC1=O` (stereo not drawn) [Compound 7f, Ethyl-2-(2-(5-(2,4-dichlorophenyl)-3-(4-methoxyphenyl)-4,5-dihydro-1H-pyrazol-1-yl)-4-oxothiazol-5(4H)-ylidene)acetate] came in with a melting point above 260 °C. In data set [1], this compound displayed an IC50 of 566 ± 48 nM.
The term Ki denotes a dissociation constant, usually derived from enzyme kinetics or from competition with a known ligand. In general, Km refers to the concentration of substrate that gives half-maximal velocity. On to `CCOC(=O)C=C1SC(N2N=C(c3ccc(OC)cc3)CC2c2ccc(OCc3ccccc3)c(OC)c2)=NC1=O` (stereo not drawn) [Compound 7g, Ethyl-2-(2-(5-(4-(benzyloxy)-3-methoxyphenyl)-3-(4-methoxyphenyl)-4,5-dihydro-1H-pyrazol-1-yl)-4-oxothiazol-5(4H)-ylidene)acetate], for which the melting point lay in the range of 228 to 230 °C. This compound showed an IC50 in data set [1] of 45 ± 4 nM. Moreover, in data set [1] (versus standard reference monopotassium phosphate), the “fold more active than monopotassium phosphate (IC50 ratio)” value turned out to be 116 fold. For the same compound, in data set [2] (Lineweaver-Burk plot, substrate p-NPP), the “Inhibition Type” value is reported as “non-competitively; also recorded: Non-Competitive”. The Vmax in data set [2] (inhibitor 7g concentration 0.023 µM) is recorded as 0.0014 ΔA/Min. In addition, in data set [2] (inhibitor 7g concentration 0.045 µM), the Vmax was 0.0011 ΔA/Min. Besides, the Vmax in data set [2] (inhibitor 7g concentration 0.091 µM) is recorded as 0.0009 ΔA/Min. For the same compound, in data set [2] (secondary plot of slope versus inhibitor concentration, read-out: Ki (EI dissociation constant)), the Ki worked out at 93 nM. Also, the Km in data set [2] (substrate p-NPP, inhibitor 7g concentration 0.023 µM) turned out to be 500 µM. In addition, the Km in data set [2] (substrate p-NPP, inhibitor 7g concentration 0.045 µM) amounted to 500 µM. Also, the Km in data set [2] (substrate p-NPP, inhibitor 7g concentration 0.091 µM) was 500 µM. Also, in data set [3], the “DPPH free radical scavenging (inhibition)” value came out at 29.7%.
In the case of `CCOC(=O)C=C1SC(N2N=C(c3ccc(OC)cc3)CC2c2ccc(Br)cc2)=NC1=O` (stereo not drawn) [Compound 7h, Ethyl-2-(2-(5-(4-bromophenyl)-3-(4-methoxyphenyl)-4,5-dihydro-1H-pyrazol-1-yl)-4-oxothiazol-5(4H)-ylidene)acetate], the melting point lay within 218 to 220 °C. The compound also returned an IC50 in data set [1] of 907 ± 41 nM.
The like results for `CCOC(=O)C=C1SC(N2N=C(c3ccc(OC)cc3)CC2c2ccc(F)cc2)=NC1=O` (stereo not drawn) [Compound 7i, Ethyl-2-(2-(5-(4-fluorophenyl)-3-(4-methoxyphenyl)-4,5-dihydro-1H-pyrazol-1-yl)-4-oxothiazol-5(4H)-ylidene)acetate] were, in that order, 210 to 212 °C and 315 ± 17 nM.
In the case of `CCOC(=O)C=C1SC(N2N=C(c3ccc(OC)cc3)CC2c2ccccc2)=NC1=O` (stereo not drawn) [Compound 7j, Ethyl-2-(2-(3-(4-methoxyphenyl)-5-phenyl-4,5-dihydro-1H-pyrazol-1-yl)-4-oxothiazol-5(4H)-ylidene)acetate], the melting point lay within 167 to 169 °C. Besides, the IC50 in data set [1] stood at 434 ± 11 nM. In the data set “MTT cell viability assay”, this compound returned a viability at 24 h, 4 µM of at most 70%.
`CCOC(=O)C=C1SC(N2N=C(c3ccc(OC)cc3)CC2c2ccc(OC)cc2)=NC1=O` (stereo not drawn) [Compound 7k, Ethyl-2-(2-(3,5-bis(4-methoxyphenyl)-4,5-dihydro-1H-pyrazol-1-yl)-4-oxothiazol-5(4H)-ylidene)acetate] gave a melting point of 208 to 210 °C. This compound registered an IC50 in data set [1] of 75 ± 5 nM.
The like results for `CCOC(=O)C=C1SC(N2N=C(c3ccccc3)CC2c2ccc(Cl)cc2)=NC1=O` (stereo not drawn) [Compound 7l, Ethyl-2-(2-(5-(4-chlorophenyl)-3-phenyl-4,5-dihydro-1H-pyrazol-1-yl)-4-oxothiazol-5(4H)-ylidene)acetate] were, in that order, 251 to 253 °C and 51 ± 19 nM.
The compound `CCOC(=O)C=C1SC(N2N=C(c3ccc(OC)cc3)CC2c2ccc(Cl)cc2)=NC1=O` (stereo not drawn) [Compound 7m, Ethyl-2-(2-(5-(4-chlorophenyl)-3-(4-methoxyphenyl)-4,5-dihydro-1H-pyrazol-1-yl)-4-oxothiazol-5(4H)-ylidene)acetate] had a melting point of 220 to 222 °C. This compound also came in with an IC50 in data set [1] of 302 ± 4 nM. Moreover, the viability at 24 h, 4 µM in the data set “MTT cell viability assay” is at most 70%.
Compound `CCOC(=O)C=C1SC(N2N=C(c3ccccc3)CC2c2ccccc2)=NC1=O` (stereo not drawn) [Compound 7n, Ethyl-2-(2-(3,5-diphenyl-4,5-dihydro-1H-pyrazol-1-yl)-4-oxothiazol-5(4H)-ylidene)acetate] showed a melting point of 216 to 218 °C. Besides, in data set [1], inhibition was half-maximal at 2990 ± 734 nM (IC50).
For the compound `N[C@@H](Cc1ccccc1)C(=O)O` [L-phenylalanine], the “sensitivity of inhibition of tissue-specific isozymes (PLALP, GCALP, IALP) relative to L/B/K ALPs” value in data set [4] is recorded as 30 times.
For `C#Cc1cccc(Nc2ncnc3cc(OCCOC)c(OCCOC)cc23)c1` [erlotinib, reference compound], the viability at 24 h, 2 µM in the data set “MTT cell viability assay” (first three treatments (0.5, 1, 2 µM)) was above 90%.
Regarding `c1ccc([C@H]2CN3CCSC3=N2)cc1` [levamisole], the Ki at ALP is 16000 nM.
Take `Cn1c(=O)c2[nH]cnc2n(C)c1=O` [theophylline]: the Ki at ALP was 82000 nM.

These data come from publication PMC9654533, “Potent Alkaline Phosphatase Inhibitors, Pyrazolo-Oxothiazolidines: Synthesis, Biological Evaluation, Molecular Docking, and Kinetic Studies” (International Journal of Molecular Sciences, 2022).
